Source: article PMC8704707 (Pharmaceuticals, 2021)
In brackets after ≈: the same amount, converted by molar mass. Several values for one entry are separate records, joined by “and”; a condition that tells them apart may be missing. Equal entries are not always repeated. Where two headings read alike, the source gives them in different places.

Columns and labels:
[1] = target: BuChE from equine serum (EqBuChE) (Equus caballus, UniProt P81908); assay: biochemical; details: mean ± SD, n = three independent experiments; BTCh 40 µM; read-out: IC50 BuChE
Sequence of BuChE from equine serum (EqBuChE) (P81908 whole entry): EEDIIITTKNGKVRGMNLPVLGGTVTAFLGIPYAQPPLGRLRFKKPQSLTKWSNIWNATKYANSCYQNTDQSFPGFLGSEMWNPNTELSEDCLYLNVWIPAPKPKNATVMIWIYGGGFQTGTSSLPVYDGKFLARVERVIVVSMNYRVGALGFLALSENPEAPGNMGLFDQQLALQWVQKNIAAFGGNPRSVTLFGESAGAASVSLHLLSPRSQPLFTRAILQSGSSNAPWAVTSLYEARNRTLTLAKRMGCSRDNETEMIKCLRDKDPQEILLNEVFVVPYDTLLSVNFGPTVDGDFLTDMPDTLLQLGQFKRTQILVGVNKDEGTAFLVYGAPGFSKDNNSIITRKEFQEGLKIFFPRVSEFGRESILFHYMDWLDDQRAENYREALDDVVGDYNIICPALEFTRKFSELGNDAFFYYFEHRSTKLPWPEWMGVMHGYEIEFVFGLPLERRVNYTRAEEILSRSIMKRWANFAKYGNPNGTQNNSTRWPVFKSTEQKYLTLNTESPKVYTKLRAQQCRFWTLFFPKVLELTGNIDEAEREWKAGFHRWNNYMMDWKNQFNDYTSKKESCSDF

[2] = target: AChE from electric eel (EeAChE) (Electrophorus electricus, UniProt O42275); assay: biochemical; assay type: biochemical
Sequence of AChE from electric eel (EeAChE) (O42275 24-633): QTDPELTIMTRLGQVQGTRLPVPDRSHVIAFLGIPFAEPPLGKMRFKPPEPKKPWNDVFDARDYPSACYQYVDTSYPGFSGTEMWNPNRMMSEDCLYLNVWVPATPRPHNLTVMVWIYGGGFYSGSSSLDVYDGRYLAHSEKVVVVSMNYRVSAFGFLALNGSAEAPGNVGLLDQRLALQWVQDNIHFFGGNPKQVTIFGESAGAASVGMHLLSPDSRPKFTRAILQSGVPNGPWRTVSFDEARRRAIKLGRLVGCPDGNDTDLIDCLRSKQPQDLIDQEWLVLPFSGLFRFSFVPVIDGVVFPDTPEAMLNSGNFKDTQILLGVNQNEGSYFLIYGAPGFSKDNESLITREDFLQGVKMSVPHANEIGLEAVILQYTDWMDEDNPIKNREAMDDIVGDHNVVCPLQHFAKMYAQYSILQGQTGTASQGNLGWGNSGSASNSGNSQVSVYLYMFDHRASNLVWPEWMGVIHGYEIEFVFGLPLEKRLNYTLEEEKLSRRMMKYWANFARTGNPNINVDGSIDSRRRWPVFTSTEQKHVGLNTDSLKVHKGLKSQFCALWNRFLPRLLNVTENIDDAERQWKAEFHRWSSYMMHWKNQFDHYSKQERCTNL

[3] = tested on: Enterococcus faecalis ATCC 29212; assay: Antibacterial microdilution broth method (EUCAST); assay type: cell-based
[4] = tested on: Acinetobacter baumannii ATCC 19606; assay: Antibacterial microdilution broth method (EUCAST); assay type: cell-based
[5] = tested on: Staphylococcus epidermidis ATCC 12228; assay: Antibacterial microdilution broth method (EUCAST); assay type: cell-based
[6] = tested on: Escherichia coli ATCC 25922; assay: Antibacterial microdilution broth method (EUCAST); assay type: cell-based
[7] = tested on: methicillin-resistant Staphylococcus aureus ATCC 43300; assay: Antibacterial microdilution broth method (EUCAST); assay type: cell-based; details: ATCC 43300 / MRSA
[8] = tested on: Staphylococcus aureus ATCC 29213; assay: Antibacterial microdilution broth method (EUCAST); assay type: cell-based
[9] = tested on: Pseudomonas aeruginosa ATCC 27853; assay: Antibacterial microdilution broth method (EUCAST); assay type: cell-based
[10] = tested on: Klebsiella pneumoniae ATCC 10031; details: for MIC KP 24 h: 24 h incubation; for MIC KP 48 h: 48 h incubation
Candida krusei ATCC 6258 = assay: microbe, parasite or virus in culture; assay type: cell-based; details: Pichia kudriavzevii
[11] = tested on: Trichophyton interdigitale ATCC 9533; assay: microbe, parasite or virus in culture; assay type: cell-based
[12] = tested on: Candida albicans ATCC 24443; assay: microbe, parasite or virus in culture; assay type: cell-based
[13] = tested on: Candida parapsilosis ATCC 22019; assay: microbe, parasite or virus in culture; assay type: cell-based; details: Lodderomyces parapsilosis
[14] = tested on: Candida tropicalis ATCC 750; assay: microbe, parasite or virus in culture; assay type: cell-based
[15] = ATCC29212, 24 h, read-out: MIC EF 24 h
[16] = ATCC29212, 48 h, read-out: MIC EF 48 h
[17] = ATCC19606, 24 h, read-out: MIC ACI 24 h
[18] = ATCC19606, 48 h, read-out: MIC ACI 48 h
[19] = ATCC12228, 24 h, read-out: MIC SE 24 h
[20] = ATCC12228, 48 h, read-out: MIC SE 48 h
[21] = ATCC25922, 24 h, read-out: MIC EC 24 h
[22] = ATCC25922, 48 h, read-out: MIC EC 48 h
[23] = mean ± SD, n = three independent experiments, ATCh 40 µM, read-out: IC50 AChE
[24] = ATCC29213, 24 h, read-out: MIC SA 24 h
[25] = ATCC29213, 48 h, read-out: MIC SA 48 h
[26] = ATCC27853, 24 h, read-out: MIC PA 24 h
[27] = ATCC27853, 48 h, read-out: MIC PA 48 h
[28] = ATCC6258, 24 h, read-out: MIC CK 24 h
[29] = ATCC6258, 48 h, read-out: MIC CK 48 h
[30] = ATCC9533, 72 h, read-out: MIC TI 72 h
[31] = ATCC9533, 120 h, read-out: MIC TI 120 h
[32] = ATCC24443, 24 h, read-out: MIC CA 24 h
[33] = ATCC24443, 48 h, read-out: MIC CA 48 h
[34] = ATCC22019, 24 h, read-out: MIC CP 24 h
[35] = ATCC22019, 48 h, read-out: MIC CP 48 h
[36] = ATCC750, 24 h, read-out: MIC CT 24 h
[37] = ATCC750, 48 h, read-out: MIC CT 48 h

Row | SMILES | IC50 [1] | Selectivity AChE/BuChE [2] | MIC [3, 15] [µM] | MIC [3, 16] [µM] | MIC [4, 17] [µM] | MIC [4, 18] [µM] | MIC [5, 19] [µM] | MIC [5, 20] [µM] | MIC [6, 21] [µM] | MIC [6, 22] [µM] | MIC ([7]; 24 h, read-out: MIC MRSA 24 h) [µM] | MIC ([7]; 48 h, read-out: MIC MRSA 48 h) [µM] | IC50 [2, 23] [µM] | MIC [8, 24] [µM] | MIC [8, 25] [µM] | MIC [9, 26] [µM] | MIC [9, 27] [µM] | MIC KP 24 h [10] [µM] | MIC KP 48 h [10] [µM] | MIC (Candida krusei ATCC 6258; [28]) [µM] | further results
1 | [H]/N=C(\N)NN=Cc1cccc(Cl)c1 [Compound 1c, (E)-2-(3-Chlorobenzylidene)hydrazine-1-carboximidamide] | 41.5 ± 3.06 µM | 1.06 | – | – | – | – | – | – | – | – | – | – | – | – | – | – | – | – | – | – | IC50 [2]: 43.9 ± 0.76 µM
2 | [H]/N=C(\N)NN=Cc1ccc(Cl)cc1O [Compound 1f, (E)-2-(4-Chloro-2-hydroxybenzylidene)hydrazine-1-carboximidamide] | 30.6 ± 1.51 µM | 1.40 | 500 (≈ 106 µg/mL) | 500 (≈ 106 µg/mL) | 500 (≈ 106 µg/mL) | 500 (≈ 106 µg/mL) | 125 (≈ 26.6 µg/mL) | 125 (≈ 26.6 µg/mL) | 500 (≈ 106 µg/mL) | 500 (≈ 106 µg/mL) | 500 (≈ 106 µg/mL) | 500 (≈ 106 µg/mL) | 42.8 ± 1.33 | 500 (≈ 106 µg/mL) | 500 (≈ 106 µg/mL) | 500 (≈ 106 µg/mL) | 500 (≈ 106 µg/mL) | 500 (≈ 106 µg/mL) | 500 (≈ 106 µg/mL) | – | –
3 | [H]/N=C(\N)NN=Cc1cc(Cl)ccc1O [Compound 1g, (E)-2-(5-Chloro-2-hydroxybenzylidene)hydrazine-1-carboximidamide] | 45.2 ± 0.86 µM | 0.83 | 125 (≈ 26.6 µg/mL) | 250 (≈ 53.2 µg/mL) | 500 (≈ 106 µg/mL) | 500 (≈ 106 µg/mL) | 62.5 (≈ 13.3 µg/mL) | 62.5 (≈ 13.3 µg/mL) | 500 (≈ 106 µg/mL) | 500 (≈ 106 µg/mL) | 500 (≈ 106 µg/mL) | 500 (≈ 106 µg/mL) | 37.4 ± 0.73 | 250 (≈ 53.2 µg/mL) | 250 (≈ 53.2 µg/mL) | 500 (≈ 106 µg/mL) | 500 (≈ 106 µg/mL) | 500 (≈ 106 µg/mL) | 500 (≈ 106 µg/mL) | – | –
4 | [H]/N=C(\N)NN=Cc1c(O)cccc1Cl [Compound 1h, (E)-2-(6-Chloro-2-hydroxybenzylidene)hydrazine-1-carboximidamide] | 62.3 ± 1.08 µM | 0.47 | > 500 | > 500 | 500 (≈ 106 µg/mL) | 500 (≈ 106 µg/mL) | 125 (≈ 26.6 µg/mL) | 250 (≈ 53.2 µg/mL) | > 500 | > 500 | > 500 | > 500 | 29.5 ± 0.93 | 250 (≈ 53.2 µg/mL) | 500 (≈ 106 µg/mL) | > 500 | > 500 | >500 | >500 | – | –
5 | [H]/N=C(\N)NN=Cc1cc(I)ccc1O [Compound 1i, (E)-2-(2-Hydroxy-5-iodobenzylidene)hydrazine-1-carboximidamide] | < 20 µM and 19.8 µM | 1.27 | 500 (≈ 152 µg/mL) | 500 (≈ 152 µg/mL) | 500 (≈ 152 µg/mL) | 500 (≈ 152 µg/mL) | 250 (≈ 76 µg/mL) | 250 (≈ 76 µg/mL) | 250 (≈ 76 µg/mL) | 250 (≈ 76 µg/mL) | 125 (≈ 38 µg/mL) | 125 (≈ 38 µg/mL) | 25 ± 0.5 | 125 (≈ 38 µg/mL) | 125 (≈ 38 µg/mL) | 500 (≈ 152 µg/mL) | 500 (≈ 152 µg/mL) | 250 (≈ 76 µg/mL) | 250 (≈ 76 µg/mL) | 250 (≈ 76 µg/mL) | MIC (Candida krusei ATCC 6258; [29]): 250 µM (≈ 76 µg/mL); MIC [11, 30]: 62.5 µM (≈ 19 µg/mL); MIC [11, 31]: 125 µM (≈ 38 µg/mL); MIC [12, 32]: 500 µM (≈ 152 µg/mL); MIC [12, 33]: 500 µM (≈ 152 µg/mL); MIC [13, 34]: 250 µM (≈ 76 µg/mL); MIC [13, 35]: 250 µM (≈ 76 µg/mL); MIC [14, 36]: 500 µM (≈ 152 µg/mL); MIC [14, 37]: 500 µM (≈ 152 µg/mL)
6 | [H]/N=C(\N)NN=Cc1cc(Cl)cc(Br)c1O [Compound 1k, (E)-2-(3-Bromo-5-chloro-2-hydroxybenzylidene)hydrazine-1-carboximidamide] | < 20 µM and 11.7 µM | 1.92 | 500 (≈ 146 µg/mL) | 500 (≈ 146 µg/mL) | > 500 | > 500 | 125 (≈ 36.4 µg/mL) | 250 (≈ 72.9 µg/mL) | 500 (≈ 146 µg/mL) | 500 (≈ 146 µg/mL) | 250 (≈ 72.9 µg/mL) | 250 (≈ 72.9 µg/mL) | 22.4 ± 0.67 | 250 (≈ 72.9 µg/mL) | 250 (≈ 72.9 µg/mL) | > 500 | > 500 | 250 (≈ 72.9 µg/mL) | 250 (≈ 72.9 µg/mL) | 500 (≈ 146 µg/mL) | MIC (Candida krusei ATCC 6258; [29]): 500 µM (≈ 146 µg/mL); MIC [11, 30]: 125 µM (≈ 36.4 µg/mL); MIC [11, 31]: 250 µM (≈ 72.9 µg/mL); MIC [12, 32]: 250 µM (≈ 72.9 µg/mL); MIC [12, 33]: 500 µM (≈ 146 µg/mL); MIC [13, 34]: 500 µM (≈ 146 µg/mL); MIC [13, 35]: 500 µM (≈ 146 µg/mL); MIC [14, 36]: 500 µM (≈ 146 µg/mL); MIC [14, 37]: 500 µM (≈ 146 µg/mL)
